Experimental data: patent US9399145B2, “Nanoscale neuromodulating platform for retina neuron activation apparatus and method” (The Board of Trustees of the University of Illinois, priority 2005, dated 2016)

Legend:
[1] = system: GABAARs of cerebellar PNs; test: Whole-cell voltage clamp of cerebellar Purkinje neurons in slices, GABA-evoked currents with UV/blue light; format: cell-based, mouse; details: 10 μM GABA + 30 μM MPC088 by pressure pipette
Description: To evaluate the efficacy of MPC088 in GABAAR-expressing cells in situ, whole-cell voltage-clamp experiments were conducted on Purkinje neurons (PNs) in parasagittal slices from mouse cerebellum (Häusser et al. (1997); Smith et al. (2003)) (FIG. 40). […] The cell was flashed with UV light (1 s, shuttered from a mercury arc lamp), then blue light (1 s, from a 470 nm LED), and then again with UV light (1 s). […] The magnitude of the UV-to-blue transition was calculated as (B-UV1)/UV1; that of the blue-to-UV transition was calculated as (UV2-B)/UV2. […] For the negative control experiments (i.e., those involving exposure to vehicle or propofol alone) in which no light-evoked current was detectable, current was measured for identical epochs at the terminations of the light pulses.
Experiments on cerebellar PNs employed acute slices obtained from cerebella of 16-30 day-old C57/BL6 mice (Charles River Laboratories). After induction of deep anesthesia with isoflurane, mice were decapitated, and the cerebellum vermis was removed and placed in an ice-cold cutting solution containing (in mM): 85 NaCl, 2.5 KCl, 0.5 CaCl2, 4 MgCl2, 1.25 NaH2PO4, 24 NaHCO3, 25 glucose, and 75 sucrose. A Leica VT1000 vibratome was used to cut 250 μm thick, sagittal slices from the cerebellar vermis. […]

[2] = target: T1, α1β2γ2 GABAARs (rat α1, rat β2 and human γ2S) (UniProt P18507+P62813+P63138); test: Two-electrode voltage clamp of α1β2γ2 GABAAR-expressing Xenopus oocytes; format: cell-based; details: for rate constant 1/τ of UV-induced decrease in membrane current (de-potentiation): 3 μM GABA and 1 μM MPC088
T1 construct: expressed in transfected cells; host or cells: Xenopus laevis oocytes
Excerpt: Purple and gray bars indicate periods of presentation of UV light (purple) and high-intensity visible light (High-Vis) (gray), respectively. […] These amplitude determination conditions are denoted by numbers beneath the waveform in FIG. 35d.
In each of the MPC088 experiments, the cis-dominant form was generated by UV light during static bathing. […] Numbers beneath the waveform in FIG. 2(c) denote amplitude determination conditions for that experiment.
Oocytes expressing α1β2γ2 receptors (rat α1, rat β2 and human γ2S) were prepared and studied by two-electrode voltage-clamp recording^58 (holding potential: −70 mV; amplifier: GeneClamp500B; Axon Instruments, Foster City, Calif.). Unless otherwise indicated, oocytes were superfused with Ringer solution (physiological saline) at a rate of ˜1 mL/min. The experiments of FIGS. 35d-e, 36c-e and 47 involved periods of static bathing, i.e., halted superfusion. The γ2(A79C) subunit was prepared by site-directed mutagenesis. Oocyte electrophysiological experiments were carried out in room light. A UV light-emitting diode (peak wavelength: 365 nm; Hamamatsu Photonics, Japan) and a microscope illuminator (white light; Schott Fostec, Auburn, N.Y.) provided UV and visible stimulating light. As measured at the position of the oocyte, the intensity of the UV light at 365 nm was 220 μW/mm^2. At 440 nm, the nominal strength of the visible (white) light (referred to as high-intensity visible light) was 28 μW/mm^2, and that of the ambient room illumination was 0.045 μW/mm^2. In all experiments, low-intensity visible light from the microscope illuminator (3 μW/mm^2 at 440 nm) was present at all times except those involving high-intensity visible illumination. Electrophysiological data were obtained using Clampex 8.2 (Axon Instruments), analyzed using Clampfit 10.0 (Axon Instruments) and OriginPro7.5 (OriginLab, Northampton, Mass.). All statistical analysis employed a two-sample t-test.

α4β3δ GABAAR = target: T2, α4β3δ GABAAR (Homo sapiens, UniProt P28472+P48169); test: Two-electrode voltage clamp of α4β3δ GABAAR-expressing oocytes; format: cell-based
T2 construct: expressed in transfected cells; host or cells: Xenopus oocytes
Excerpt: Propofol is known to modulate GABAA receptors that contain a β subunit. […] Data in each group was obtained from 4 oocytes.

[3] = system: Purkinje neurons (PNs) of the cerebellar slice; test: Whole-cell current clamp of Purkinje neurons, action potential firing; format: cell-based, mouse
Description: The effects of MPC088 on action potential firing in PNs of the cerebellar slice were also examined. These experiments were similar to those, except that the cells were recorded under current-clamp in order to allow the cell to spike. […] Representative data was obtained by whole-cell current-clamp recording from a PN which was injected with 468 pA to elicit a high-frequency train of action potentials. […] The cell was then exposed for 1-s durations to UV light (UV1), then blue light, and then again with UV (UV2). […] Below this trace is plotted the instantaneous firing frequency vs. time; the dashed line reflects the average firing frequency during the 1-s epoch that preceded the first UV exposure (FIG. 41a). FIG. 41b depicts a summary of results from experiments of the type shown in a. Average spike frequencies were obtained for each cell in each of five 1-s epochs, then normalized to the pre-GABA/MPC088 firing frequency (n=8 cells from 4 animals). Error bars here and in c represent the SEM. Repeated-measures ANOVA on the aggregate data yielded F(3,21)=10.213, p<0.001. […] Significance was determined from post-hoc paired-sample t-tests corrected for multiple comparisons, which yielded p<0.02. […]
To further address whether MPC088 has non-specific effects on excitability, the spikes elicited in the experiment described in FIG. 41 were analyzed. […] Three action potential (AP) parameters were measured: peak amplitude, half width, and maximum rise slope. […] AP waveform parameters were calculated for pre-puff, blue light, and UV epochs. […]
For the voltage-clamp experiments of FIG. 40, each cell was […] between 1-6 trials of the drug application+light flash protocol. […] A peri-stimulus time histogram (PSTH) was calculated for each trial using 250-ms time bins; these were averaged across trials to produce a PSTH for the experiment, using the software TaroTools (Dr. Taro Ishikawa, Jikei University School of Medicine, Tokyo, Japan) and Igor Pro 6.2 (WaveMetrics, Inc., Lake Oswego, Oreg.).

T1 sequence (P62813 28-455): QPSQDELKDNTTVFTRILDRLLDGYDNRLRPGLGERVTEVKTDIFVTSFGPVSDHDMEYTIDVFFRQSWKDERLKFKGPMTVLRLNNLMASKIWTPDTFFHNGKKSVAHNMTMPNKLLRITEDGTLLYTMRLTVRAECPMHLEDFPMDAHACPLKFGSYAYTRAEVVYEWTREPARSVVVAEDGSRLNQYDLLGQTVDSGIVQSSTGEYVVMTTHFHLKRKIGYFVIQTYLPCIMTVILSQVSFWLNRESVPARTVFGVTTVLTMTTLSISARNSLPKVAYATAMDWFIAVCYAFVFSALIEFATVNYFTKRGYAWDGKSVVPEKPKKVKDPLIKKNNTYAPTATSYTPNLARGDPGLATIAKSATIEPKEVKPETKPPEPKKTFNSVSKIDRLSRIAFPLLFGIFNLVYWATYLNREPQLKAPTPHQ
T1 sequence (P63138 25-474 limits assumed): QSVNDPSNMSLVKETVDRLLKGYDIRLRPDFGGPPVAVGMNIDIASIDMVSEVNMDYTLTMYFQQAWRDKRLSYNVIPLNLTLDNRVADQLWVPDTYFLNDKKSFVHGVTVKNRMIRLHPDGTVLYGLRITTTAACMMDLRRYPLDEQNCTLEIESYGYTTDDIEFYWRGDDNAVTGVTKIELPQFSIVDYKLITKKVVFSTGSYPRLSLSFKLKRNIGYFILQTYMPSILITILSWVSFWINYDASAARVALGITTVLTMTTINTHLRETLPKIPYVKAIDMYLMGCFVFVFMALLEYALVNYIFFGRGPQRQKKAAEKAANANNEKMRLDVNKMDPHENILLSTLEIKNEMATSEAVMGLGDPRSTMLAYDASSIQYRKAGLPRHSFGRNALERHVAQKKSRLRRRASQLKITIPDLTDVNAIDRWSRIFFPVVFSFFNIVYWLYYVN
T1 sequence (P18507 40-467 isoform P18507-1 limits assumed): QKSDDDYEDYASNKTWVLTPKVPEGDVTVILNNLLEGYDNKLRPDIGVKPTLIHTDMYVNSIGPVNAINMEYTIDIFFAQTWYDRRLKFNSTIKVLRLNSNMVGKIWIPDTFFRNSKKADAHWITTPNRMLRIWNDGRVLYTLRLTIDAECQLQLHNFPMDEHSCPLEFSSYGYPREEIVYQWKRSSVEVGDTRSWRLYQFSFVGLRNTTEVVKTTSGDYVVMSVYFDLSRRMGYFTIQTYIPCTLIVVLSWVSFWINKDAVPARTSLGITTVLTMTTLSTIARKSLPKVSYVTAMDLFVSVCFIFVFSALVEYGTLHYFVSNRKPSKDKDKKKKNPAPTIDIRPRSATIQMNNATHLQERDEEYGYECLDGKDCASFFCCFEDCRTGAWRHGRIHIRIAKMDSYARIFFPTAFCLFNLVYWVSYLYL
T2 sequence (P48169 36-554): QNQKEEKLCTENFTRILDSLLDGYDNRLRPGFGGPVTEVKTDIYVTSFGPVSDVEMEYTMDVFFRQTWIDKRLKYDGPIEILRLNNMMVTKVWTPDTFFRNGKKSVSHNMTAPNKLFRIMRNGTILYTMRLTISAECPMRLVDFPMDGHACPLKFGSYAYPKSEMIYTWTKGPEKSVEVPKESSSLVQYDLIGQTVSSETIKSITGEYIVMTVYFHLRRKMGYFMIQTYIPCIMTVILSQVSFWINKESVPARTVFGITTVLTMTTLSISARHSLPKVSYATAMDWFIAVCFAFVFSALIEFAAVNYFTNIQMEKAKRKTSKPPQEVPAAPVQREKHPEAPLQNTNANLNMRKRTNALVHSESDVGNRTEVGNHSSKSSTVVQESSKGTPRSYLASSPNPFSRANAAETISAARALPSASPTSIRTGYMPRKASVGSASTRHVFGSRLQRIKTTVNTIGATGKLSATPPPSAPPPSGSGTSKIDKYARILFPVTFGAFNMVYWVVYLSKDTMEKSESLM
T2 sequence (P28472 26-473): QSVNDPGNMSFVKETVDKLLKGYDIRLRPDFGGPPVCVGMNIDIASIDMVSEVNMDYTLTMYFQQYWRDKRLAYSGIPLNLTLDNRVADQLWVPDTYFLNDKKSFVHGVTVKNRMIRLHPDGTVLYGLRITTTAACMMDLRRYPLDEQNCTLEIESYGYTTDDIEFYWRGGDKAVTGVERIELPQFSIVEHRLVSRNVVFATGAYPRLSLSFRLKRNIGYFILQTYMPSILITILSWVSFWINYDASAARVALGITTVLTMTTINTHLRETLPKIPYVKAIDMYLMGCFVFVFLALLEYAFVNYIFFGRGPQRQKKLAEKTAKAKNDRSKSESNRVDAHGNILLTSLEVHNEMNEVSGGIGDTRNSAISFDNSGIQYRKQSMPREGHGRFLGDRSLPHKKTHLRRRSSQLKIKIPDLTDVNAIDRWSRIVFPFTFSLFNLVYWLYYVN
T2 sequence (O14764 25-452 partner): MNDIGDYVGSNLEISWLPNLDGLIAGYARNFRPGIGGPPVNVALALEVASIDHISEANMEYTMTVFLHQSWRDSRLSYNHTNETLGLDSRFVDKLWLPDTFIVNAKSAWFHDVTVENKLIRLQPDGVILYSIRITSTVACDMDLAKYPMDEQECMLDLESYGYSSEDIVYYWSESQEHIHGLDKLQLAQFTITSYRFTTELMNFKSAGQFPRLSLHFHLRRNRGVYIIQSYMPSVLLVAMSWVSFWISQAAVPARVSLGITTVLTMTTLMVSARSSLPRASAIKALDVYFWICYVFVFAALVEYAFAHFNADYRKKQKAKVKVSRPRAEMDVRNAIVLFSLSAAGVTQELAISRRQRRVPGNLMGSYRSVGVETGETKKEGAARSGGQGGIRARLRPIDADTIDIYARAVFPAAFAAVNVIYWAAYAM

- GABAAR potentiating and direct agonist activities relative to parent propofol [2]: more than an order of magnitude
- rate constant 1/τ of UV-induced decrease in membrane current (de-potentiation) ([2]; 10-fold reduced UV intensity): 0.13 ± 0.02 s⁻¹
- rate constant 1/τ of UV-induced decrease in membrane current (de-potentiation) ([2]; nominal UV intensity): 0.43 ± 0.09 s⁻¹
- potentiation of the GABA response ([2]; co-applied 3 μM GABA, MPC088 1 μM, MPD021 10 or 100 μM, MPC100 10 μM): markedly potentiated the GABA response
- lowest concentration at which direct activation response is clearly evident ([2]; compound alone, no GABA): 4 µM
- potency in direct activation relative to propofol ([2]; concentrations required for peak current equal to 40% of the 100 μM GABA-alone response): ~25 fold
- plateau of response function relative to response with high GABA concentration (α4β3δ GABAAR; co-applied 50 nM GABA (~EC8)): ~42%
Structure (SMILES): CC(C)c1cc(CCCC(=O)NCc2ccc(/N=N/c3ccc(C(=O)NCCN)cc3)cc2)cc(C(C)C)c1O [MPC088, (E)-N-(2-Aminoethyl)-4-((4-((4-(4-hydroxy-3,5-diisopropylphenyl)butanamido)methyl)phenyl)diazenyl)benzamide]
- mean ratio of absolute current magnitude in response to blue→UV/UV→blue [1]: 1.00±0.01
- maximum current of direct activation relative to the 100 μM GABA response ([2]; compound alone): comparable with the peak current elicited by 100 μM GABA
- direct agonist activity (α4β3δ GABAAR; compound alone): much lower than those at α1β3γ2 and α1β2γ2
- firing rate produced by blue light relative to that produced by UV light ([3]; 10 μM GABA + 30 μM MPC088, UV-Blue-UV flashes): 52±14%
- decrease of firing rate ([3]; 10 μM GABA + 30 μM trans-dominant MPC088): approximately 50%
- effects on AP waveform ([3]; peak amplitude, half width, maximum rise slope): no detectable effects
